target: Mitogen-activated protein kinase 9 (Homo sapiens, UniProt P45984); experiment: Inhibition of His6-tagged JNK2 (unknown origin) assessed as reduction in c-Jun phosphorylation using GST-c-Jun (1 to 79 residues) and [gamma32P]ATP incubated for 1 hr by scintillation counting assay
Sequence (P45984 whole entry, the tested form may be a part): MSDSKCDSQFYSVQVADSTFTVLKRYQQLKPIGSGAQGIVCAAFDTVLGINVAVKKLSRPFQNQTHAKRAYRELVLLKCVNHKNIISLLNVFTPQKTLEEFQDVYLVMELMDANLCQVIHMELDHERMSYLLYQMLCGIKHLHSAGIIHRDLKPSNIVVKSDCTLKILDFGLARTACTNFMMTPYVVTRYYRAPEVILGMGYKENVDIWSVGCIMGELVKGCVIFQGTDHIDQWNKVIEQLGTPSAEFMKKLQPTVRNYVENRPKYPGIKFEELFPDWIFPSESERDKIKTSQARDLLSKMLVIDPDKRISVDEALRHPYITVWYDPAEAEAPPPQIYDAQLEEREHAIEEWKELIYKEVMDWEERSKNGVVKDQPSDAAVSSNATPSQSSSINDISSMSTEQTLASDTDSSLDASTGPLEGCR

| IC50 [µM] | Compound |
| --- | --- |
| 0.5 to 10 | O=C(CC1CCCCC1)Nc1cccc(-c2n[nH]c3ccc(-c4nc[nH]n4)cc23)c1 |
| 0.5 to 10 | CN(C)Cc1nc(-c2ccc3[nH]nc(-c4cccc(NC(=O)[C@H](O)c5ccccc5)c4)c3c2)n[nH]1 |
| 1 to 10 | O=C(Nc1cccc(-c2n[nH]c3ccc(-c4nc[nH]n4)cc23)c1)c1ccc(Cl)nc1 |
| 1 to 10 | O=C(Nc1cccc(-c2n[nH]c3ccc(-c4nc[nH]n4)cc23)c1)C1CCCC1 |
| 0.5 to 10 | NC(=O)c1ccc2[nH]nc(-c3cccc(NC(=O)Cc4ccccc4)c3)c2c1 |
| 1 to 10 | Fc1ccc(-c2n[nH]c3ccc(-c4n[nH]c(CN5CCCCC5)n4)cc23)cc1 |
| 1 to 10 | CCN(CC)Cc1nc(-c2ccc3[nH]nc(-c4ccc(F)cc4)c3c2)n[nH]1 |
| 0.5 to 10 | O=C(Nc1cccc(-c2n[nH]c3ccc(-c4nc[nH]n4)cc23)c1)c1ccccn1 |
| 0.5 to 10 | CCCCC(=O)Nc1cccc(-c2n[nH]c3ccc(-c4nc[nH]n4)cc23)c1 |
| 0.5 to 10 | COc1ccc(CC(=O)Nc2cccc(-c3n[nH]c4ccc(C(N)=O)cc34)c2)cc1 |
| 1 to 10 | O=C(Nc1cccc(-c2n[nH]c3ccc(-c4nc[nH]n4)cc23)c1)C(=O)c1ccco1 |
| 0.5 to 10 | NC(=O)c1ccc2[nH]nc(-c3cccc(NC(=O)Cc4ccncc4)c3)c2c1 |
| 0.5 to 10 | CNCc1nc(-c2ccc3[nH]nc(-c4ccc(F)cc4)c3c2)n[nH]1 |
| 1 to 10 | NC(=O)c1ccc2[nH]nc(-c3cccc(NC(=O)Cc4ccccn4)c3)c2c1 |
| 1 to 10 | Fc1ccc(-c2n[nH]c3ccc(-c4nnc(CN5CCOCC5)o4)cc23)cc1 |
| 1 to 10 | O=C(Nc1cccc(-c2n[nH]c3ccc(-c4nc[nH]n4)cc23)c1)C1CC1 |
| 0.5 to 10 | O=C(Nc1cccc(-c2n[nH]c3ccc(-c4nc[nH]n4)cc23)c1)c1ccoc1 |

| IC50 [µM] | Compound |
| --- | --- |
| 1 to 10 | O=C(Nc1cccc(-c2n[nH]c3ccc(-c4nc[nH]n4)cc23)c1)C(=O)c1c[nH]c2ccccc12 |
| 1 to 10 | O=C(Nc1cccc(-c2n[nH]c3ccc(-c4nc[nH]n4)cc23)c1)C(=O)c1ccccc1 |
| 0.5 to 10 | CC(c1nc(-c2ccc3[nH]nc(-c4ccc(F)cc4)c3c2)n[nH]1)N(C)C (stereo not drawn) |
| 1 to 10 | Fc1ccc(-c2n[nH]c3ccc(-c4n[nH]c(CN5CCOCC5)n4)cc23)cc1 |
| 1 to 10 | Cc1ncc(CC(=O)Nc2cccc(-c3n[nH]c4ccc(C(N)=O)cc34)c2)s1 |
| 0.5 to 10 | O=C(Cc1ccc(F)cc1)Nc1cccc(-c2n[nH]c3ccc(-c4nc[nH]n4)cc23)c1 |
| 0.5 to 10 | Fc1ccc(-c2n[nH]c3ccc(-c4n[nH]c(C5CCCN5)n4)cc23)cc1 (stereo not drawn) |
| 0.5 to 10 | O=C(O)C(=O)Nc1cccc(-c2n[nH]c3ccc(-c4nc[nH]n4)cc23)c1 |
| 0.5 to 10 | CN(C)Cc1nc(-c2ccc3[nH]nc(-c4cccc(NC(=O)CC(C)(C)C)c4)c3c2)n[nH]1 |
| 1 to 10 | O=C(Nc1cccc(-c2n[nH]c3ccc(-c4nc[nH]n4)cc23)c1)c1cc2ccccc2s1 |
| 0.5 to 10 | CN(C)Cc1nc(-c2ccc3[nH]nc(-c4cccc(NC(=O)c5cccnc5)c4)c3c2)n[nH]1 |
| 0.5 to 10 | O=C(Nc1cccc(-c2n[nH]c3ccc(-c4nc[nH]n4)cc23)c1)c1ccno1 |
| 0.5 to 10 | CC(C)CC(=O)Nc1cccc(-c2n[nH]c3ccc(-c4n[nH]c(CN(C)C)n4)cc23)c1 |
| 1 to 10 | NC(=O)c1ccc2[nH]nc(-c3cccc(NC(=O)Cc4ccsc4)c3)c2c1 |
| 1 to 10 | NC(=O)c1ccc2[nH]nc(-c3cccc(NC(=O)c4cccs4)c3)c2c1 |
| 0.5 to 10 | NC(=O)c1ccc2[nH]nc(-c3cccc(NC(=O)C4CCOC4)c3)c2c1 (stereo not drawn) |
| 0.5 to 10 | O=C(CCc1ccccc1)Nc1cccc(-c2n[nH]c3ccc(-c4nc[nH]n4)cc23)c1 |

| Compound | IC50 [µM] |
| --- | --- |
| O=C(Nc1cccc(-c2n[nH]c3ccc(-c4nc[nH]n4)cc23)c1)[C@@H](O)c1ccccc1 | 0.5 to 10 |
| CN(C)CCc1nc(-c2ccc3[nH]nc(-c4ccc(F)cc4)c3c2)n[nH]1 | 1 to 10 |
| O=C(Nc1cccc(-c2n[nH]c3ccc(-c4nc[nH]n4)cc23)c1)[C@H](O)c1ccccc1 | 0.5 to 10 |
| O=C(Nc1cccc(-c2n[nH]c3ccc(-c4nc[nH]n4)cc23)c1)C(O)c1ccccc1 (stereo not drawn) | 0.5 to 10 |
